# From ChEMBL document CHEMBL1201862, “PubChem BioAssay data set” (2004)
# The source made the active and inactive calls. For most assays here, no stated cut-off is given here; in the data, actives have a measured EC50 and inactives only a lower limit.
# Columns and labels:
# [1] = NIH-3T3 fibroblast cytotoxicity, dose response, cytotoxicity control, cell-based, fluorescence, Alamar Blue, secondary assay (AID 2327); assay type: functional;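 further: NIH-3T3 mouse fibroblasts cultured with fluconazole at 8 µg/mL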
# [2] = fluconazole-exposed Candida albicans growth modulators – fluorescence, retest, confirmation (AID 2467); assay type: functional, cell-based
# [3] = target: T1, Carboxy-terminal domain RNA polymerase II polypeptide A small phosphatase 1 (Homo sapiens, UniProt Q9GZU7); experiment: CTDSP1 inhibitors, concentration-response, biochemical, absorbance readout, ultra-high-throughput screen actives (AID 540297); assay type: functional
# T1 sequence (Q9GZU7 whole entry): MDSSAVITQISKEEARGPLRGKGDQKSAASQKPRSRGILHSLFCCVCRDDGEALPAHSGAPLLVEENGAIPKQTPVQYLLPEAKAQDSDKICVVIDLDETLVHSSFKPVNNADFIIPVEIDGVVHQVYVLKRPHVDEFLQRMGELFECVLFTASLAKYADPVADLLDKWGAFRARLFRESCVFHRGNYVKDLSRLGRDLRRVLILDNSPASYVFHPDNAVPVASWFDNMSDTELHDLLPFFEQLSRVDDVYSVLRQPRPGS
# [4] = Luminescence Cell-Based Dose Confirmation HTS to Identify Activators of 5'UTR Stem-Loop Driven Alpha-Synuclein mRNA Translation in H4 Neuroglioblastoma Cells. [Related pubchem assays: 1829 (Project Summary), 1814 (Primary HTS)]; assay type: functional
# [5] = Luminescence Cell-Based Dose Response HTS to Identify Activators of Luciferase Translation or Activity in H4 […] Cells. [Related pubchem assays: 1829 (Project Summary), 1814 (Primary HTS)]; assay type: functional
# [6] = test system: H4; experiment: Luminescence Cell-Based Dose Response HTS to Identify Activators of 5'UTR Stem-Loop Driven Prion Protein mRNA Translation in H4 Neuroglioblastoma Cells. [Related pubchem assays: 1829 (Project Summary), 1814 (Primary HTS)]; assay type: functional; details: Homo sapiens
# [7] = luciferase reporter signal suppression in cells – H4 neuroglioma cells, luminescence, dose response (AID 1990); assay type: functional, cell-based
# [8] = Luminescence Cell-Based Dose Response HTS to Identify Inhibitors of 5'UTR Stem-Loop Driven Prion Protein mRNA Translation in H4 Neuroglioblastoma Cells. [Related pubchem assays: 1827 (Project Summary), 1813 (Primary HTS)]; assay type: functional
# [9] = alpha-synuclein stem-loop luciferase translation blockers – H4 neuroglioma cells, luminescence, confirmation (AID 1988); assay type: functional, cell-based
# [10] = microbe, parasite or virus in culture; assay type: functional; details: Mycobacterium tuberculosis
# [11] = Luminescence Cell-Based Dose Retest to Confirm Inhibitors of Cancer Stem Cells. [Related pubchem assays (depositor defined):AID2717, AID2721]; assay type: functional; details: Homo sapiens
# [12] = blockers of HIV-1 envelope-mediated cell-cell fusion – cherry-pick, dose response (AID 652057); assay type: functional, cell-based
# [13] = blockers of HIV-1 ZM109 envelope-driven cell-cell fusion – HeLa effector, CEM target cells, luciferase, cherry-pick, dose response (AID 652058); assay type: functional, cell-based;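 further: luciferase signal from HIV-1 Env mediated cell-cell fusion of effector and target cells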
# [14] = HIV-1 AD8 envelope cell-cell fusion blockers – cherry-pick, dose response (AID 652062); assay type: functional, cell-based;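 further: luciferase signal from cell-cell fusion driven by HIV-1 clade B AD8 Env; potency is for inhibitors of fusion seen as a drop in luminescence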
# [15] = target: Induced myeloid leukemia cell differentiation protein Mcl-1 (Homo sapiens, UniProt Q07820); assay type: functional
# Chain of Induced myeloid leukemia cell differentiation protein Mcl-1 (Q07820 whole entry): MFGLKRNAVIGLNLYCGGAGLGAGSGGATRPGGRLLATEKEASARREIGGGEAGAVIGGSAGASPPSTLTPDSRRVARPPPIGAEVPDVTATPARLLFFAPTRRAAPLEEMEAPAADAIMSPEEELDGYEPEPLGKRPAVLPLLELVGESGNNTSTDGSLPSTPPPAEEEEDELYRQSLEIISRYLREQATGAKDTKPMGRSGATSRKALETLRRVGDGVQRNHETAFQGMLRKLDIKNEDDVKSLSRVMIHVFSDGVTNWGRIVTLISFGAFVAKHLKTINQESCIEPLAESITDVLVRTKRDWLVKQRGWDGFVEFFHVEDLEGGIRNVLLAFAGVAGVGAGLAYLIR
# [16] = target: T2, Heat shock factor protein 1 (Mus musculus, UniProt P38532); experiment: enhancement of HSF1-driven luciferase signal – cell-based, NIH3T3, luminescence, dose retest, confirmation (AID 435004); assay type: functional;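 further: stress induced by proteasome inhibitor MG132 added 30 min after compound; luciferase reporter driven by HSF1 response element in NIH3T3 cells; actives raise luminescence as potentiators of the MG132 stress response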
# T2 sequence (P38532 whole entry): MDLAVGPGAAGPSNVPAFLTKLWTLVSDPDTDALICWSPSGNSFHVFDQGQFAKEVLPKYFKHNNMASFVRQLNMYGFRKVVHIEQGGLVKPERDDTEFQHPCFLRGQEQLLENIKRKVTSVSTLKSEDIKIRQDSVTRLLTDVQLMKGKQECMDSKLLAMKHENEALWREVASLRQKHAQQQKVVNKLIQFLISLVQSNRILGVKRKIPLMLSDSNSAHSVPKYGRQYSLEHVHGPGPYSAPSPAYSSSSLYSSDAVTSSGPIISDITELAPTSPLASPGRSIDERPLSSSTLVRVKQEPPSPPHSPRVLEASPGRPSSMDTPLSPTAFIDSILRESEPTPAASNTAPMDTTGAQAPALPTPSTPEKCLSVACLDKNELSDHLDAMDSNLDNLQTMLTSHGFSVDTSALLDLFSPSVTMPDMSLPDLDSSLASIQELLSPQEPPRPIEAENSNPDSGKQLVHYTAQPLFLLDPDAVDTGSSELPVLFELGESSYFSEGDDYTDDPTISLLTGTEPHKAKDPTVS
structure (smiles),measurement,setting,value
Cc1c(Cl)ccc(S(=O)(=O)Nc2cccnc2)c1Cl,EC50,[1],> 150 µM (inactive)
same,EC50,[2],> 38 µM (not active)
Cc1cc(C(=O)COC(=O)c2cc(Cl)c(O)c(Cl)c2)c(C)n1C,IC50,[3],11.5 µM (active)
COc1ccc(NC(=O)C2C(=O)N(CCO)C3(C)CC2c2ccccc2O3)cc1 (configuration not stated),EC50,[4],7.35 µM (active)
same,EC50,[5],14.8 µM (active)
same,EC50,[6],10.2 µM (active)
O=C1NC(=S)N/C1=C/c1cccc2ccccc12,EC50,[4],17.7 µM (active)
same,EC50,[5],8.63 µM (active)
same,EC50,[6],> 120 µM (not active)
O=C1/C(=C\Nc2ccc(OC(F)(F)F)cc2)CCN1c1ncccn1,EC50,[4],20.4 µM (active)
same,EC50,[5],23.7 µM (active)
same,EC50,[6],14.6 µM (active)
COc1ccc(Nc2nc(N)c([N+](=O)[O-])c(NC3CCCCC3)n2)cc1,EC50,[7],14.8 µM (active)
same,EC50,[8],10.7 µM (active)
same,EC50,[9],17.2 µM (active)
same,CC50,[10],32 µM (active)
same,AC50,[11],3.53 µM (active)
CCCCn1c(=O)[nH]c(=O)c2c1nc(-c1ccc(-c3ccccc3Br)o1)n2CC,EC50,[1],> 150 µM (inconclusive)
same,EC50,[2],> 38 µM (not active)
C[C@H]1CN([C@@H](C)CO)C(=O)c2cc(NC(=O)Nc3ccc4c(c3)OCO4)ccc2O[C@H]1CN(C)S(=O)(=O)c1cccs1,AC50,[12],6.19 µM (active)
same,AC50,[13],24.7 µM (active)
same,AC50,[14],29.3 µM (active)
CCCNC(=O)C[C@@H]1C[C@H]2c3cc(NC(=O)Cc4ccncc4)ccc3O[C@H]2[C@H](CO)O1,AC50,[14],39.4 µM (active)
C[C@H]1CN([C@@H](C)CO)C(=O)c2c(c3ccccc3n2C)-c2ccccc2CO[C@H]1CN(C)C(=O)Cc1ccccc1,AC50,[12],< 0.26 µM (active)
same,AC50,[13],< 0.26 µM (active)
same,AC50,[14],< 0.26 µM (active)
O=C(N/N=C/c1ccc(-c2ccccc2C(=O)O)o1)c1cccs1,IC50,[15],5.27 µM (active)
same,IC50,[3],4.6 µM (active)
CCc1ccc(-c2csc3ncn(Cc4ccc(C(=O)O)cc4)c(=O)c23)cc1,EC50,[1],> 150 µM (inconclusive)
same,EC50,[2],> 38 µM (not active)
CC[N+]1(CC(O)COC2CC(C)CC(C)(C)C2)CCOCC1 (configuration not stated),IC50,[3],11.3 µM (active)
O=C(C[C@@H]1C=C[C@@H](NC(=O)Nc2ccc3c(c2)OCO3)[C@H](CO)O1)NCc1ccc(F)cc1,AC50,[14],4.77 µM (active)
CCOC(=O)/C=C1\CN(CCC(C)C)S(=O)(=O)c2ccccc21,IC50,[3],45.3 µM (active)
O=C(N/N=C/c1ccncc1)c1cc2ccccc2cc1O,EC50,[1],> 150 µM (inactive)
same,EC50,[2],> 38 µM (not active)
same,EC50,[16],106 µM (active)
CCOc1ccccc1NC(=O)/C=C/C(N)=O,IC50,[15],1.1 µM (not active)
CCCCCCNC(=O)CCNS(=O)(=O)c1ccc(C)cc1,EC50,[7],> 120 µM (not active)
same,EC50,[8],> 120 µM (not active)
same,EC50,[9],> 120 µM (not active)
O=C(C[N+]12CCC(CC1)C(C(O)(c1ccccc1)c1ccccc1)C2)c1ccc(Br)cc1 (configuration not stated),EC50,[1],> 160 µM (inconclusive)
same,EC50,[2],1.45 µM (active)
